Source: ChEMBL document CHEMBL4390694, “Benzofuran-isatin hybrids tethered via different length alkyl linkers and their in vitro anti-mycobacterial activities” (Bioorg Med Chem, 2019)
≈ marks a conversion by molar mass, not a printed value.

System: Mycobacterium tuberculosis
Test: Antimycobacterial activity against multidrug-resistant Mycobacterium tuberculosis assessed as complete inhibition of bacterial growth incubated for 7 days by rapid direct susceptibility test
Format: functional
Details: 168 h

CCOC(=O)c1c(-c2ccc(F)cc2)oc2ccc(OCCCCCCN3C(=O)C(=O)c4cc(F)ccc43)cc12 was tested, and the MIC was 0.25 µg/mL (≈ 0.457 µM).

CNC(=O)c1c(-c2ccc(O)cc2)oc2ccc(O)c(CN3CCCCC3)c12 gave an MIC of under 0.06 µg/mL.

CCOC(=O)c1c(-c2ccc(OC)cc2)oc2ccc(OCCCCCN3C(=O)C(=O)c4cc(F)ccc43)cc12 was tested, and the MIC was 0.25 µg/mL (≈ 0.458 µM).

In the case of CCOC(=O)c1c(-c2ccc(F)cc2)oc2ccc(OCCCCCN3C(=O)C(=O)c4cc(OC)ccc43)cc12, the MIC is reported as 1 µg/mL (≈ 1.83 µM).

Work on CCOC(=O)c1c(-c2ccccc2)oc2ccc(OCCCN3C(=O)C(=O)c4cc(OC)ccc43)cc12 yielded an MIC of 0.25 µg/mL (≈ 0.5 µM).

CCOC(=O)c1c(-c2ccc(OC)cc2)oc2ccc(OCCCN3C(=O)C(=O)c4cc(F)ccc43)cc12 showed an MIC of 0.25 µg/mL (≈ 0.483 µM).

CCOC(=O)c1c(-c2ccc(OC)cc2)oc2ccc(OCCCN3C(=O)C(=O)c4ccccc43)cc12 gave an MIC of 1 µg/mL (≈ 2 µM).

Work on CCOC(=O)c1c(-c2ccc(F)cc2)oc2ccc(OCCCN3C(=O)C(=O)c4ccccc43)cc12 yielded an MIC of 1 µg/mL (≈ 2.05 µM).

CCOC(=O)c1c(-c2ccc(OC)cc2)oc2ccc(OCCCCN3C(=O)C(=O)c4cc(OC)ccc43)cc12 showed an MIC of 4 µg/mL (≈ 7.36 µM).

Compound CCOC(=O)c1c(-c2ccc(OC)cc2)oc2ccc(OCCCCCCN3C(=O)C(=O)c4ccccc43)cc12 has an MIC of 0.125 µg/mL (≈ 0.231 µM).

In the case of CCOC(=O)c1c(-c2ccc(OC)cc2)oc2ccc(OCCCCCCN3C(=O)C(=O)c4cc(F)ccc43)cc12, the MIC is reported as 0.125 µg/mL (≈ 0.223 µM).

CCOC(=O)c1c(-c2ccc(OC)cc2)oc2ccc(OCCCCN3C(=O)C(=O)c4ccccc43)cc12 showed an MIC of 1 µg/mL (≈ 1.95 µM).

Work on CCOC(=O)c1c(-c2ccc(F)cc2)oc2ccc(OCCCN3C(=O)C(=O)c4cc(F)ccc43)cc12 yielded an MIC of 1 µg/mL (≈ 1.98 µM).

CCOC(=O)c1c(-c2ccc(F)cc2)oc2ccc(OCCCN3C(=O)C(=O)c4cc(OC)ccc43)cc12 gave an MIC of 2 µg/mL (≈ 3.86 µM).

NNC(=O)c1ccncc1 [ISONIAZID] showed an MIC of over 128 µg/mL.

Work on CO[C@H]1/C=C/O[C@@]2(C)Oc3c(C)c(O)c4c(O)c(c(/C=N/N5CCN(C)CC5)c(O)c4c3C2=O)NC(=O)/C(C)=C\C=C\[C@H](C)[C@H](O)[C@@H](C)[C@@H](O)[C@@H](C)[C@H](OC(C)=O)[C@@H]1C [RIFAMPIN] yielded an MIC of 64 µg/mL (≈ 77.8 µM).
